Measurements published in patent US9428813B2, “DNA methylation analysis for the diagnosis, prognosis and treatment of adrenal neoplasms” (The United States of America, as Represented by the …, priority 2012, dated 2016).

System: NCI-H295R cells
Experiment: Gene expression in decitabine-treated NCI-H295R adrenocortical cells
Format: cell-based
Settings: human adrenocortical cells; including H19, S100A10, HOPX, ERBB3 and RUNX2
Protocol: Studies were performed on human adrenocortical cells and the effect of decitabine on gene-expression of HTN3, H19, S100A10, FAM129A, HOPX, TAC1, UCHL1, ERBB3, BEGNT5, RUNX2, GJA3, and BGN was evaluated. […] As such, these studies indicate that demethylating agents are agents capable of regulating malignant adrenocortical tumor-related molecules and can be used to treat ACC.

Nc1ncn([C@H]2C[C@H](O)[C@@H](CO)O2)c(=O)n1 [Decitabine, 5-azadeoxycytidine]
Effect on expression of malignant adrenocortical tumor-related molecules: significantly alter the expression
